Results published in US12180210B2, “Compounds” (INTRA-CELLULAR THERAPIES, INC., priority 2018, dated 2024).
Read-outs that look alike come from different tables or passages of the source.

Experiments:
[1] = tested on: mice; test: Forced swim paradigm, acute antidepressant-like activity; type: in vivo
[2] = tested on: mice; test: Tail suspension paradigm, acute antidepressant-like activity; type: in vivo
[3] = tested on: mice; test: Elevated plus maze, acute anxiolytic activity; conditions: compound 1, 2, and 5 mg/kg, i.p., diazepam 0.5 mg/kg
[4] = Pharmacokinetic study in mice, plasma and brain availability; conditions: single oral dose 10 mg/kg PO
Description: (§1) Mice are given a single oral dose of the compound to be tested (10 mg/kg, PO) and plasma and brain availability are measured (0.25-4h) using HPLC and LC-MS using methods analogous to those described in Zhao et al., J. Chromatogr.

[5] = tested on: PDE1; test: PDE isoform inhibition, IMAP procedure; type: biochemical
[6] = tested on: PDE3; test: PDE isoform inhibition, IMAP procedure; type: biochemical
[7] = tested on: T1, PDE4; test: PDE isoform inhibition, IMAP procedure; type: biochemical
T1 construct: PDE4 IC50

[8] = target: PDE5 (Homo sapiens, UniProt O76074); test: PDE isoform inhibition, IMAP procedure; type: biochemical
[9] = tested on: PDE6; test: PDE isoform inhibition, IMAP procedure; type: biochemical
[10] = tested on: HT-22 (hippocampal-like) cells; test: cGMP levels in HT-22 cells stimulated by NMDA; type: cell-based
[11] = tested on: HT22 cells; test: cAMP levels in HT22 cells stimulated by isoproterenol; type: cell-based
[12] = tested on: VASP (vasodilator stimulated phosphoprotein); test: Phosphorylation of effector proteins under cGMP/cAMP control: VASP; type: cell-based
[13] = tested on: CREB (cAMP response element-binding protein); test: Phosphorylation of effector proteins under cGMP/cAMP control: CREB; type: cell-based
[14] = tested on: BDNF; test: Expression of the growth factor BDNF; type: cell-based
[15] = tested on: cGMP and cAMP levels in hippocampus; test: In vivo levels of cGMP and cAMP in mouse brain (hippocampus); conditions: mice killed 30 min after injection
Description: For these studies, mice were killed 30 min after injection of each drug/dose and hippocampus isolated and used for measurement of cyclic nucleotides.

[16] = tested on: mice; conditions: mouse, in vivo
[17] = in vivo; conditions: mouse, po, 10 mg/kg
Description: as §1

[18] = tested on: mice; test: Spontaneous locomotor activity; conditions: same dose levels that increased anxiolytic activity
[19] = tested on: mice; test: Hole board test, acute anxiolytic activity; conditions: compound 1, 2, and 5 mg/kg, i.p., diazepam 0.5 mg/kg

COc1ccc(Cc2nn3c([C@@H](CCCc4ccccc4)[C@@H](C)O)nc(C)c3c(=O)[nH]2)cc1OC [BAY-7550]
Immobility time / antidepressant-like activity, forced swim [1]: generally smaller effects that did not reach significance in all assays
Immobility time / antidepressant-like activity, tail suspension [2]: generally smaller effects that did not reach significance in all assays
Open arm entrances, elevated plus maze [3]: small trends for these assays that did not achieve statistical significance
Open arm entrances, elevated plus maze ([3]; listed as commercial PDE2 inhibitor): no statically significant effect
Tmax [4]: 0.25

Cc1ccc(-c2c(-c3nc(C)n4ccnc(N5CCC5)c34)cnn2C)cc1 [Compound 1, 8-(azetidin-1-yl)-3-methyl-1-(1-methyl-5-(p-tolyl)-1H-pyrazol-4-yl)imidazo[1,5-a]pyrazine]
IC50 [5]: 8.3 µM
IC50 [6]: > 100 µM
IC50 [7]: 24.8 µM
IC50 [8]: 15.1 µM
IC50 [9]: > 100 µM
Optimal dose for stimulation of cGMP levels [10]: 10 nM
cGMP levels ([10]; NMDA (20 μM), 15 min incubation): dose-dependent increase
Optimal dose for stimulation of cAMP levels [11]: 10 nM
cAMP levels ([11]; isoproterenol (ISO, 10 nM)): dose-dependent increase
Phosphorylation of VASP [12]: concentration-dependent increase
Phosphorylation of CREB [13]: concentration-dependent increase
Expression of BDNF [14]: increased the expression
Immobility time / antidepressant-like activity, forced swim [1]: significantly reduced immobility time
Immobility time / antidepressant-like activity, tail suspension [2]: significantly reduced immobility time
cAMP levels in hippocampus [15]: significant increases
cGMP levels in hippocampus [15]: significant increases
Spontaneous locomotor activity [16]: did not significantly affect spontaneous locomotor activity
AUC(0-t) [17]: 119 ng·h/mL
Cmax [17]: 268 ng/mL
Tmax [17]: 30 min
half-life [17]: 48 min
Open arm entrances, elevated plus maze [3]: significantly increased open arm entrances

CNCCCN1c2ccccc2CCc2ccccc21 [Desipramine, desipramine]
Immobility time / antidepressant-like activity, forced swim [1]: induced signs of antidepressant-like activity
Immobility time / antidepressant-like activity, tail suspension [2]: induced signs of antidepressant-like activity

CN1C(=O)CN=C(c2ccccc2)c2cc(Cl)ccc21 [Diazepam, diazepam]
Spontaneous locomotor activity [18]: did not significantly affect spontaneous locomotor activity
Exploration, hole board test [19]: increased explorations
Open arm entrances, elevated plus maze [3]: increased entrance into open arms
